Test results published in US11767310B2, “Nicotinamide RIPK1 inhibitors” (AbbVie Inc., priority 2021, dated 2023).
Like-named read-outs stand apart in the source and are kept apart here.

Legend:
Assay in all cases: Kinase binding screen
Conditions in all cases: read-out: Percent Control at 100 nM Compound Concentration
[1] = biological target: CTK (Homo sapiens (Human), UniProt P42679)
[2] = biological target: HCK (Homo sapiens (Human), UniProt P08631)
[3] = biological target: MEK3 (Homo sapiens (Human), UniProt P46734)
Sequence of MEK3 (P46734 whole entry): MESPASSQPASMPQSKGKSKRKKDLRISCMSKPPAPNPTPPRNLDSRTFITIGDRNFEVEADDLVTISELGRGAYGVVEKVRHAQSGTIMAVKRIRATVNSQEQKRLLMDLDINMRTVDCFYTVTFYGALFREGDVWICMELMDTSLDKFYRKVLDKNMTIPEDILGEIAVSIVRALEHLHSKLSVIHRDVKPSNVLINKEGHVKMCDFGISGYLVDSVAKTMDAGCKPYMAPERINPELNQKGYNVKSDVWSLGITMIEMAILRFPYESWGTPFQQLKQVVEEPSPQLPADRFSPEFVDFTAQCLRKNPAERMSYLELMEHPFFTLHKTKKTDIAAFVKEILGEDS

[4] = biological target: GRK1 (Homo sapiens (Human), UniProt Q15835)
Sequence of GRK1 (Q15835 whole entry): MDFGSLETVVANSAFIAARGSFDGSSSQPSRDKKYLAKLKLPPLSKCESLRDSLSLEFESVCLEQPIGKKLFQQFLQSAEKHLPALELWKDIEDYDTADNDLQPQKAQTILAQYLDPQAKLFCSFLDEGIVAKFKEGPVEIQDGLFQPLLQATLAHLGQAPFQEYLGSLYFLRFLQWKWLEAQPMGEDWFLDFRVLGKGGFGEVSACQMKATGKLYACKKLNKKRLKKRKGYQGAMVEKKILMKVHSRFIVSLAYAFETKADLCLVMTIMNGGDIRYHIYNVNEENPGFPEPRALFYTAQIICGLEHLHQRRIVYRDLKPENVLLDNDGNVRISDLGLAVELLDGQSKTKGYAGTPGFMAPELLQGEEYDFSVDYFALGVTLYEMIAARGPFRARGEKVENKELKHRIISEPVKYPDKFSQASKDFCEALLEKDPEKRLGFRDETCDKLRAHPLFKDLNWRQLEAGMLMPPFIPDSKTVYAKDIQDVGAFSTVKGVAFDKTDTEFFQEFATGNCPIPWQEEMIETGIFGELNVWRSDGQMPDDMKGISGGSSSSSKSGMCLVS

[5] = biological target: CAMK1D (Homo sapiens (Human), UniProt Q8IU85)
[6] = biological target: MAPKAPK5 (Homo sapiens (Human), UniProt Q8IW41)
[7] = biological target: FRK (Homo sapiens (Human), UniProt P42685)
[8] = biological target: NEK10 (Homo sapiens (Human), UniProt Q6ZWH5)
[9] = biological target: CDK4-cyclinD3 (Homo sapiens (Human), UniProt P11802)
[10] = biological target: RIOK1 (Homo sapiens (Human), UniProt Q9BRS2)
[11] = biological target: RET(M918T) (Homo sapiens (Human), UniProt P07949, M918T)
[12] = biological target: GSK3A (Homo sapiens (Human), UniProt P49840)
Sequence of GSK3A (P49840 whole entry): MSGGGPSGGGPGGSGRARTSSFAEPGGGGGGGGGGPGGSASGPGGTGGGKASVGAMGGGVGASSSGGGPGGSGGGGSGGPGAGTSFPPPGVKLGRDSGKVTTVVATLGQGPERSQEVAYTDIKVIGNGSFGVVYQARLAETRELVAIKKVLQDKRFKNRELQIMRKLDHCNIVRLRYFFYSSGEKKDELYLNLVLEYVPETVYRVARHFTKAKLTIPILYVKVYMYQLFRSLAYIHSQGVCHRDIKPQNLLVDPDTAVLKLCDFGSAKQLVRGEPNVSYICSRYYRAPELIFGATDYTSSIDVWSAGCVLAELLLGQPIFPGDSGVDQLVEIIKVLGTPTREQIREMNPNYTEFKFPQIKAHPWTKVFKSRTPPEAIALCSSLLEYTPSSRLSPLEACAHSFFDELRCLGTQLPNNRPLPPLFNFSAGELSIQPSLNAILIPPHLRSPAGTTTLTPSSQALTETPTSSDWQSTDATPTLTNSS

[13] = biological target: ABL1-phosphorylated (Homo sapiens (Human), UniProt P00519)
[14] = biological target: DYRK2 (Homo sapiens (Human), UniProt Q92630)
Sequence of DYRK2 (Q92630 whole entry): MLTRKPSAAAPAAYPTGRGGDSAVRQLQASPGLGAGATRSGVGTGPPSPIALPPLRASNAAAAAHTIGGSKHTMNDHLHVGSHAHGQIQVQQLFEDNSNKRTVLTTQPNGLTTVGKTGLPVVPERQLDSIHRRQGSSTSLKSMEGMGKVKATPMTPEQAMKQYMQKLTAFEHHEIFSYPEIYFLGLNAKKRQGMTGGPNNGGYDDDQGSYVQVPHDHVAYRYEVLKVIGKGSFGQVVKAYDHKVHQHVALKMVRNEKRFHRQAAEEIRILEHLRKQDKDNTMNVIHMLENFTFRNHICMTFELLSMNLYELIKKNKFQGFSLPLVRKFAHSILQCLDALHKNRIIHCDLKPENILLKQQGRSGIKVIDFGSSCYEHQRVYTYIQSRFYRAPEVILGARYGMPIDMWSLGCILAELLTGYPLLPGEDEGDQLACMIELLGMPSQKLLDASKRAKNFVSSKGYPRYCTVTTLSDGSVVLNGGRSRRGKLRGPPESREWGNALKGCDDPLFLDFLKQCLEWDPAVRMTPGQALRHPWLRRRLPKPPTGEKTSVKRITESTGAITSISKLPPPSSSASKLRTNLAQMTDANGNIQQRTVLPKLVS

[15] = biological target: MKK7 (Homo sapiens (Human), UniProt O14733)
[16] = biological target: BTK (Homo sapiens (Human), UniProt Q06187)
Sequence of BTK (Q06187 whole entry): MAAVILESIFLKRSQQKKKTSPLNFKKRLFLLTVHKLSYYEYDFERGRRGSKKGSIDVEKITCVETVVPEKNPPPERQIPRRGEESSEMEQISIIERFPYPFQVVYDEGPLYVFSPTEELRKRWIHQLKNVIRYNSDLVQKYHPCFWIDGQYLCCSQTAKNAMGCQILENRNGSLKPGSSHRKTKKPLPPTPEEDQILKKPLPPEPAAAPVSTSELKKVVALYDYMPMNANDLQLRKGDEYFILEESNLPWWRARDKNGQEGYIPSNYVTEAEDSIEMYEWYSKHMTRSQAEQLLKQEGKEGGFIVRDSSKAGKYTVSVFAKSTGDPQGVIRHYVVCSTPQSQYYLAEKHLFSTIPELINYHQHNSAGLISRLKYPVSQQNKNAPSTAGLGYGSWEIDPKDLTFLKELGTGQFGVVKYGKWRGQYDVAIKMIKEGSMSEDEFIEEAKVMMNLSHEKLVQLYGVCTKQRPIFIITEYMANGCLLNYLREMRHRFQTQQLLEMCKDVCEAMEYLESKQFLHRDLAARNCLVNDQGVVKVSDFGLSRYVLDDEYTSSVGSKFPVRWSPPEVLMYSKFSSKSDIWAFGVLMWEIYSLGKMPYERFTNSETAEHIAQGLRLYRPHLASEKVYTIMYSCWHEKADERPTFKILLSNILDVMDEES

[17] = biological target: CLK3 (Homo sapiens (Human), UniProt P49761)
[18] = biological target: CSF1R (Homo sapiens (Human), UniProt P07333)
Sequence of CSF1R (P07333 20-972): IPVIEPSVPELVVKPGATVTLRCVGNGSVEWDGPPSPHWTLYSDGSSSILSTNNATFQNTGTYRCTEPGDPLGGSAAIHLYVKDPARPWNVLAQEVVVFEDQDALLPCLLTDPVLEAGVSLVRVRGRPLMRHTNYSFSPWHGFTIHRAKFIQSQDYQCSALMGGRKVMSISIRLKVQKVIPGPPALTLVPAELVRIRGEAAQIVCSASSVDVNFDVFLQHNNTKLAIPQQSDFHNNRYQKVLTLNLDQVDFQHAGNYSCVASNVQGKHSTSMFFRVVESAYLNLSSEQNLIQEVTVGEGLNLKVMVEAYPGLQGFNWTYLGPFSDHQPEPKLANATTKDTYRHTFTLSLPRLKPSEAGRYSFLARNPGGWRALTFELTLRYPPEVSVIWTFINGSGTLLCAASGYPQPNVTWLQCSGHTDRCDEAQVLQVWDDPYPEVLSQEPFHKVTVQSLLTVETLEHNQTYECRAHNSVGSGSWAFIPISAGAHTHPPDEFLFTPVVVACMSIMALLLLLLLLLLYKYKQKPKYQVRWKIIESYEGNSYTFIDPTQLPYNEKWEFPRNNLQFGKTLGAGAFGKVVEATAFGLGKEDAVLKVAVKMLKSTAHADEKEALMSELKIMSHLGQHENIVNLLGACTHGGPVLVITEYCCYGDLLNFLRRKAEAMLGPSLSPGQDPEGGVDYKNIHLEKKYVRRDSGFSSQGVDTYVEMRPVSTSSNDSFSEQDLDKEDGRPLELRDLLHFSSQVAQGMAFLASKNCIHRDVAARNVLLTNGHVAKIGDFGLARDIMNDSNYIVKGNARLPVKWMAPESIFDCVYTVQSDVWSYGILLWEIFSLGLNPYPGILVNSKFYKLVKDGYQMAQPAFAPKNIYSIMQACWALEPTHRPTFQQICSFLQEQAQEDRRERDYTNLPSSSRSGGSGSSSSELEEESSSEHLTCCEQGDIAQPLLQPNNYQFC

[19] = biological target: PIK3C2B (Homo sapiens (Human), UniProt O00750)
[20] = biological target: MAP3K15 (Homo sapiens (Human), UniProt Q6ZN16)
[21] = biological target: NEK5 (Homo sapiens (Human), UniProt Q6P3R8)
[22] = biological target: INSR (Homo sapiens (Human), UniProt P06213)
[23] = biological target: WNK3 (Homo sapiens (Human), UniProt Q9BYP7)
[24] = biological target: IRAK1 (Homo sapiens (Human), UniProt P51617)
[25] = biological target: PIK3CA(H1047Y) (Homo sapiens (Human), UniProt P42336, H1047Y)
[26] = biological target: ULK1 (Homo sapiens (Human), UniProt O75385)
[27] = biological target: ACVR1B (Homo sapiens (Human), UniProt P36896)
Sequence of ACVR1B (P36896 24-505): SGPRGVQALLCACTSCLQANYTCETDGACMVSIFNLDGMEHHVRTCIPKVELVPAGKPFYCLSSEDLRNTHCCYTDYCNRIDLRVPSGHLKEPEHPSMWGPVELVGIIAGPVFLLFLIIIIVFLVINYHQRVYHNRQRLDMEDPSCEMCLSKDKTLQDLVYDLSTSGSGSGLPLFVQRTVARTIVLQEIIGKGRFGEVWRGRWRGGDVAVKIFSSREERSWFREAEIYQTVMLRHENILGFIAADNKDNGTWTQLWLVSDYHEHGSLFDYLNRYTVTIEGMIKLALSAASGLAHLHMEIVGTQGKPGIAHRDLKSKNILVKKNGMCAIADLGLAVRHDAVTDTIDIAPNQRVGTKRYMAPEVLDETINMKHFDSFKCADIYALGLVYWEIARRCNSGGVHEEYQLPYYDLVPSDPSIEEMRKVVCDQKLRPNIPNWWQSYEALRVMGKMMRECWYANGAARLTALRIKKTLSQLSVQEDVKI

[28] = biological target: KIT(D816V) (Homo sapiens (Human), UniProt P10721, D816V)
Sequence of KIT(D816V) (P10721 26-976 D816V): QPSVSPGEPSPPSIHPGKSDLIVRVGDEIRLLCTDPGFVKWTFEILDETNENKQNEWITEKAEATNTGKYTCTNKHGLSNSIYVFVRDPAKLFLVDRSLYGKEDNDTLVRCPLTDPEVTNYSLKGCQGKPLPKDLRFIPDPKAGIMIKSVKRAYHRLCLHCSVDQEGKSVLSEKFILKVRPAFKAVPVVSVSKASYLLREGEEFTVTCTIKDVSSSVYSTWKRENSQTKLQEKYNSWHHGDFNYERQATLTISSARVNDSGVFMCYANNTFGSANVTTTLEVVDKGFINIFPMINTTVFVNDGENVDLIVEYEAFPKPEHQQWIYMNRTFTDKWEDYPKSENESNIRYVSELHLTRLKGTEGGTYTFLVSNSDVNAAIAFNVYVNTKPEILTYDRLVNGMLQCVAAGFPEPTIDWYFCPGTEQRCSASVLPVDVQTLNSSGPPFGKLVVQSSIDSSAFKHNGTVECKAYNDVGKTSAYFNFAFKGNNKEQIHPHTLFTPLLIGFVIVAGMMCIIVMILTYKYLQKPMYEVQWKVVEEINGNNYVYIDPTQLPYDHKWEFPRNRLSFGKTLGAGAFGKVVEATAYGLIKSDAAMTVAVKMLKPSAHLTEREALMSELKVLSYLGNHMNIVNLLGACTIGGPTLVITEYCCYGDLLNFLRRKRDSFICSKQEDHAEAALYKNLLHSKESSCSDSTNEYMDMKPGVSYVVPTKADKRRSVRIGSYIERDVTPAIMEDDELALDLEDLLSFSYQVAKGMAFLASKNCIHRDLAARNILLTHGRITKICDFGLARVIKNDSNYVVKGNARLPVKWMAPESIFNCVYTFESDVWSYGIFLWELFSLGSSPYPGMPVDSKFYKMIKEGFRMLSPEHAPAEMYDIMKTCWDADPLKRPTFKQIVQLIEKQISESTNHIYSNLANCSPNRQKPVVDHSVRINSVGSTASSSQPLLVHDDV

[29] = biological target: ZAP70 (Homo sapiens (Human), UniProt P43403)

Q: CN(C[C@H](Cc1ccccc1)OP(=O)(O)O)C(=O)c1cncc(C#Cc2cnn(C(F)F)c2)c1 [Example 19, (S)-1-(5-((1-(difluoromethyl)-1H-pyrazol-4-yl)ethynyl)-N-methylnicotinamido)-3-phenylpropan-2-yl dihydrogen phosphate] was tested. Which remaining activity at 0.1 µM [1] did it give?
A: 90%

Q: And the remaining activity at 0.1 µM [2]?
A: 100%

Q: And the remaining activity at 0.1 µM [3]?
A: 79%

Q: What about the remaining activity at 0.1 µM [4] of the same molecule?
A: 98%

Q: And the remaining activity at 0.1 µM [5]?
A: 74%

Q: And the remaining activity at 0.1 µM [6]?
A: 96%

Q: And the remaining activity at 0.1 µM [7]?
A: 100%

Q: What about the remaining activity at 0.1 µM [8] of the same molecule?
A: 100%

Q: And the remaining activity at 0.1 µM [9]?
A: 100%

Q: What about the remaining activity at 0.1 µM [10] of the same molecule?
A: 100%

Q: What about the remaining activity at 0.1 µM [11] of the same molecule?
A: 100%

Q: And the remaining activity at 0.1 µM [12]?
A: 100%

Q: What about the remaining activity at 0.1 µM [13] of the same molecule?
A: 78%

Q: What about the remaining activity at 0.1 µM [14] of the same molecule?
A: 97%

Q: What about the remaining activity at 0.1 µM [15] of the same molecule?
A: 96%

Q: What about the remaining activity at 0.1 µM [16] of the same molecule?
A: 96%

Q: And the remaining activity at 0.1 µM [17]?
A: 93%

Q: What about the remaining activity at 0.1 µM [18] of the same molecule?
A: 100%

Q: What about the remaining activity at 0.1 µM [19] of the same molecule?
A: 100%

Q: And the remaining activity at 0.1 µM [20]?
A: 97%

Q: What about the remaining activity at 0.1 µM [21] of the same molecule?
A: 94%

Q: What about the remaining activity at 0.1 µM [22] of the same molecule?
A: 100%

Q: What about the remaining activity at 0.1 µM [23] of the same molecule?
A: 100%

Q: What about the remaining activity at 0.1 µM [24] of the same molecule?
A: 86%

Q: And the remaining activity at 0.1 µM [25]?
A: 72%

Q: And the remaining activity at 0.1 µM [26]?
A: 100%

Q: What about the remaining activity at 0.1 µM [27] of the same molecule?
A: 100%

Q: And the remaining activity at 0.1 µM [28]?
A: 100%

Q: What about the remaining activity at 0.1 µM [29] of the same molecule?
A: 98%

Q: Which results are given for CN(C[C@@H](O)Cc1ccccc1)C(=O)c1cncc(C#Cc2cnn(C(F)F)c2)c1 [Example 2, (S)-5-((1-(difluoromethyl)-1H-pyrazol-4-yl)ethynyl)-N-(2-hydroxy-3-phenylpropyl)-N-methylnicotinamide]?
A: remaining activity at 0.1 µM ([1]; CTK): 100%; remaining activity at 0.1 µM ([2]; HCK): 100%; remaining activity at 0.1 µM ([3]; MEK3): 94%; remaining activity at 0.1 µM ([4]; GRK1): 100%; remaining activity at 0.1 µM ([5]; CAMK1D): 100%; remaining activity at 0.1 µM ([6]; MAPKAPK5): 94%; remaining activity at 0.1 µM ([7]; FRK): 100%; remaining activity at 0.1 µM ([8]; NEK10): 91%; remaining activity at 0.1 µM ([9]; CDK4-cyclinD3): 100%; remaining activity at 0.1 µM ([10]; RIOK1): 100%; remaining activity at 0.1 µM ([11]; RET(M918T)): 100%; remaining activity at 0.1 µM ([12]; GSK3A): 100%; remaining activity at 0.1 µM ([13]; ABL1-phosphorylated): 79%; remaining activity at 0.1 µM ([14]; DYRK2): 100%; remaining activity at 0.1 µM ([15]; MKK7): 98%; remaining activity at 0.1 µM ([16]; BTK): 100%; remaining activity at 0.1 µM ([17]; CLK3): 97%; remaining activity at 0.1 µM ([18]; CSF1R): 100%; remaining activity at 0.1 µM ([19]; PIK3C2B): 100%; remaining activity at 0.1 µM ([20]; MAP3K15): 100%; remaining activity at 0.1 µM ([21]; NEK5): 100%; remaining activity at 0.1 µM ([22]; INSR): 100%; remaining activity at 0.1 µM ([23]; WNK3): 100%; remaining activity at 0.1 µM ([24]; IRAK1): 91%; remaining activity at 0.1 µM ([25]; PIK3CA(H1047Y)): 71%; remaining activity at 0.1 µM ([26]; ULK1): 100%; remaining activity at 0.1 µM ([27]; ACVR1B): 100%; remaining activity at 0.1 µM ([28]; KIT(D816V)): 100%; remaining activity at 0.1 µM ([29]; ZAP70): 98%
